Tests used:
H1299 (lung) = experiment: In vitro cytotoxic activity (MTT) assay, H1299; assay type: cell-based; conditions: Homo sapiens, NCI-H1299; H1299 (lung) cells, exposed for 96 hours; read-out: IC50, concentration of compound eliciting a 50% inhibition of cell proliferation
Experimental: (§1) Compounds 1-12 were screened for their in vitro cytotoxic activity utilizing a 3-(4,5-dimethyl-thiazol-2-yl)-2,5-diphenyltetrazolium bromide (MTT) assay against selected cancer human cell lines consisting of PC3 (prostate), HCT116 (colon), A375 (melanoma), H1299 (lung), MIAPaCa-2 (pancreas), HL60 (leukemia), MCF7 (breast), MDA-MB-231 (breast) (T. Mosmann, J. Immunol. Meth., 1983, 65, 55-63). The cells were cultured at 37° C. in RMPI1640 medium supplemented with 10% fetal bovine serum, 50 IU/mL penicillin, and 50 μg/mL streptomycin in a 5% CO2 incubator. All cells were sub-cultured 3 times/week by trypsinisation. Viable cells were seeded and allowed to adhere for 12 h before a test drug was added in 96-well plates at an initial density of 1.0×10^5 cells/mL. Tumour cell lines were separately exposed to various concentrations of the tested compounds followed by incubation at a temperature of 37° C. during 96 h inside a medium of fresh RMPI 1640. Cells were subsequently incubated at 37° C. using MTT at 0.5 mg/mL during 4 h. After removal of supernatant, formazan crystals were dissolved in isopropanol and the optical density was measured at 570 nm. CX-4945 was used as a positive control.

[1] = molecular target: T1, recombinant human CK2 (RRββ-holoenzyme) (Homo sapiens, UniProt P68400); experiment: CK2 Kinase Assay (radiometric, [γ-33P] ATP); assay type: biochemical; conditions: final ATP concentration 15 μM, 10 min at 30° C.; read-out: protein kinase CK2 IC50
T1 construct: purchased Millipore
T1 sequence (P68400 whole entry): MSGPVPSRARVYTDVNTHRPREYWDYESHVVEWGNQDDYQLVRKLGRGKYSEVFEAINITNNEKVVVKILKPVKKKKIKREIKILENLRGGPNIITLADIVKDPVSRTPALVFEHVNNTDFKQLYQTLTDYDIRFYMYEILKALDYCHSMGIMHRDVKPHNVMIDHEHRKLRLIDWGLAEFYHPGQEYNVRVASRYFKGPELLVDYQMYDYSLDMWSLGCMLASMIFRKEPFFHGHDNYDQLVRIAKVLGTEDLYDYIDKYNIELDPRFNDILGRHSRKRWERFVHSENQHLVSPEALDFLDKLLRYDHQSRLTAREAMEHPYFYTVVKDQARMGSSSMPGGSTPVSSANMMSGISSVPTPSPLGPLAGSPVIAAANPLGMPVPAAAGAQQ
T1 sequence (P67870 whole entry partner): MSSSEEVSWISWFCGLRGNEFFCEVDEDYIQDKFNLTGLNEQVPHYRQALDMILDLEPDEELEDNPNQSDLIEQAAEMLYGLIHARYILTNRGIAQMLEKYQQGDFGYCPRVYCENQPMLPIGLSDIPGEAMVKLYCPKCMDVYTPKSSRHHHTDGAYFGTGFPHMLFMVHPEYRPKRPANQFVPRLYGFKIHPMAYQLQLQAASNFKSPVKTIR
Experimental: CK2 Kinase Assay was conducted using the protocol as described in Pierre F. et al; J. Med. Chem. 2011, 54, 635-654. The tested compounds in aqueous solution were added at a volume of 10 μL to a reaction mixture comprising 10 μL of assay dilution buffer (ADB; 20 mM MOPS, pH 7.2, 25 mM β-glycerol phosphate, 5 mM EGTA, 1 mM sodium orthovanadate, and 1 mM dithiothreitol), 10 μL of substrate peptide (RRRDDDSDDD, dissolved in ADB at a concentration of 1 mM), 10 μL of recombinant human CK2 (RRββ-holoenzyme, 25 ng dissolved in ADB; Millipore). Reactions were initiated by the addition of 10 μL of ATP solution (90% 75 mMMgCl2, 75 μM ATP (final ATP concentration: 15 μM) dissolved in ADB; 10% [γ-33P] ATP (stock 1 mCi/100 μL; 3000 Ci/mmol (Perkin-Elmer) and maintained for 10 min at 30° C. The reactions were quenched with 100 μL of 0.75% phosphoric acid and then transferred to and filtered through a phosphor cellulose filter plate (Millipore). After washing each well five times with 0.75% phosphoric acid, the plate was dried under vacuum for 5 min and, following the addition of 15 μL of scintillation fluid to each well, the residual radioactivity was measured using a Wallac […] counter. The IC50 values were derived from eight concentrations of test inhibitors.

MCF7 (breast) = experiment: In vitro cytotoxic activity (MTT) assay, MCF7; assay type: cell-based; conditions: Homo sapiens; MCF7 (breast) cells, exposed for 96 hours; read-out: IC50, concentration of compound eliciting a 50% inhibition of cell proliferation
Experimental: as §1

A375 (melanoma) = experiment: In vitro cytotoxic activity (MTT) assay, A375; assay type: cell-based; conditions: Homo sapiens, A-375; A375 (melanoma) cells, exposed for 96 hours; read-out: IC50, concentration of compound eliciting a 50% inhibition of cell proliferation
Experimental: as §1

PC3 (prostate) = experiment: In vitro cytotoxic activity (MTT) assay, PC3; assay type: cell-based; conditions: Homo sapiens, Prostate cell; PC3 (prostate) cells, exposed for 96 hours; read-out: IC50, concentration of compound eliciting a 50% inhibition of cell proliferation
Experimental: as §1

HCT116 (colon) = experiment: In vitro cytotoxic activity (MTT) assay, HCT116; assay type: cell-based; conditions: Homo sapiens, HCT-116; HCT116 (colon) cells, exposed for 96 hours; read-out: IC50, concentration of compound eliciting a 50% inhibition of cell proliferation
Experimental: as §1

HL60 (leukemia) = experiment: In vitro cytotoxic activity (MTT) assay, HL60; assay type: cell-based; conditions: Homo sapiens, HL-60; HL60 (leukemia) cells, exposed for 96 hours; read-out: IC50, concentration of compound eliciting a 50% inhibition of cell proliferation
Experimental: as §1

MDA-MB-231 (breast) = experiment: In vitro cytotoxic activity (MTT) assay, MDA-MB-231; assay type: cell-based; conditions: Homo sapiens; MDA-MB-231 (breast) cells, exposed for 96 hours; read-out: IC50, concentration of compound eliciting a 50% inhibition of cell proliferation
Experimental: as §1

MIAPaCa-2 (pancreas) = experiment: In vitro cytotoxic activity (MTT) assay, MIAPaCa-2; assay type: cell-based; conditions: Homo sapiens, MIA PaCa-2; MIAPaCa-2 (pancreas) cells, exposed for 96 hours; read-out: IC50, concentration of compound eliciting a 50% inhibition of cell proliferation
Experimental: as §1

## Clc1cccc(Nc2c3cnccc3nc3c2[nH]c2ccncc23)c1 [Compound (1), N-(3-chlorophenyl)-10H-pyrido[3′,4′:4,5]pyrrolo[3,2-b][1,6]naphthyridin-11-amine]
H1299 (lung)
  IC50: 3200 nM
[1]
  IC50: 64 nM
MCF7 (breast)
  IC50: 7600 nM
A375 (melanoma)
  IC50: 2800 nM
PC3 (prostate)
  IC50: 1700 nM
HCT116 (colon)
  IC50: 1100 nM
HL60 (leukemia)
  IC50: 2400 nM
MDA-MB-231 (breast)
  IC50: 5400 nM
MIAPaCa-2 (pancreas)
  IC50: 900 nM

From patent publication US11932642B1, “Substituted pyrido[3′,4′:4,5]pyrrolo[3,2-b][1,6]naphthyridines as CK2 inhibitors” (KING FAISAL UNIVERSITY, priority 2023, dated 2024)
